The structures appear in SMILES notation.

One test deals with T1, P2Y12 receptor (Homo sapiens, UniProt Q9H244).
T1 construct: expressed in transfected cells; host or cells: CHO cells (membrane preparation)
T1 sequence (Q9H244 whole entry): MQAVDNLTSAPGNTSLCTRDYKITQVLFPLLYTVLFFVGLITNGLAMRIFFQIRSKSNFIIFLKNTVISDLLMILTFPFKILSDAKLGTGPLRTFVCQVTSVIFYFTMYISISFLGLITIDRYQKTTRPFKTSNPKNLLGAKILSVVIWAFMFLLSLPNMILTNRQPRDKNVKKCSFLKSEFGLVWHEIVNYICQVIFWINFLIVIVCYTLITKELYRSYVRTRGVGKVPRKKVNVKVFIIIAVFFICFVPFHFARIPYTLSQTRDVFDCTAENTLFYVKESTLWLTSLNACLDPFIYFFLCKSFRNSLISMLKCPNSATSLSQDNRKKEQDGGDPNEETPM
Nature of the test: Functional inhibition of 2-Me-S-ADP induced P2Y12 signalling (35S-GTPγS binding, cell membranes). The test is classed as biochemical. As to conditions: 35S-GTPγS assay, membranes, EC80 concentration of 2-methyl-thio-adenosine diphosphate, 30° C. for 45 min; read-out: GTPγS (IC50 μM). The method, then: Functional inhibition of- the P2Y12 receptor can be measured by in vitro assays using cell membranes from P2Y12 transfected CHO-cells, the methodology is indicated below.
Functional inhibition of 2-Me-S-ADP induced P2Y12 signalling: 5 μg of membranes were diluted in 200 μl of 200 mM NaCl, 1 mM MgCl2, 50 mM HEPES (pH 7.4), 0.01% BSA, 30 μg/ml saponin and 10 μM GDP. To this was added an EC80 concentration of agonist (2-methyl-thio-adenosine diphosphate), the required concentration of test compound and 0.1 μCi ^35S-GTPγS. The reaction was allowed to proceed at 30° C. for 45 min. Samples were then transferred on to GF/B filters using a cell harvester and washed with wash buffer (50 mM Tris (pH 7.4), 5 mM MgCl2, 50 mM NaCl). Filters were then covered with scintilant and counted for the amount of ^35S-GTPγS retained by the filter. Maximum activity was that determined in the presence of the agonist and minimum activity in the absence of the agonist following subtraction of the value determined for non-specific activity. The effect of compounds at various concentrations was plotted according to the equation
y=A+((B−A)/(1+((C/x)̂D)))
and IC50 estimated where A is the bottom plateau of the curve i.e. the final minimum y value B is the top of the plateau of the curve i.e. the final maximum y value C is the x value at the middle of the curve. This represents the log EC50 value when A+B=100 D is the slope factor. x is the original known x values. Y is the original known y values.
In the case of `CCOC(=O)c1cc(C#N)c(N2CCC(C(=O)N(CC(=O)O)S(=O)(=O)Cc3ccccc3)CC2)nc1C` [Example 1, N-(benzylsulfonyl)-N-({1-[3-cyano-5-(ethoxycarbonyl)-6-methylpyridin-2-yl]piperidin-4-yl}carbonyl)glycine], the IC50 (commonly the midpoint of a concentration-inhibition curve) came to 0.093 µM.
On the same count and under the same terms, for `CCOC(=O)c1cc(C#N)c(N2CCC(C(=O)NS(=O)(=O)Cc3ccccc3)CC2)nc1OC(C)=O` [Example 2, Ethyl 2-acetoxy-6-{4-[(benzylsulfonyl)carbamoyl]piperidin-1-yl}-5-cyanonicotinate] the value was 0.024 µM; for `CCOC(=O)c1cc(C#N)c(N2CCC(C(=O)NS(=O)(=O)Cc3ccccc3)CC2)nc1CN1CCCC1` [Example 3, Ethyl 6-{4-[(benzylsulfonyl)carbamoyl]piperidin-1-yl}-5-cyano-2-(pyrrolidin-1-ylmethyl)nicotinate], 0.545 µM; for `CCOC(=O)c1cc(C#N)c(N2CCC(C(=O)NS(=O)(=O)Cc3ccccc3)CC2)nc1CN(C)C` [Example 4, Ethyl 6-{4-[(benzylsulfonyl)carbamoyl]piperidin-1-yl}-5-cyano-2-[(dimethylamino)methyl]nicotinate], 0.282 µM.
On the same count and under the same terms, as for `CCOC(=O)c1cc(C#N)c(N2CCC(C(=O)NS(=O)(=O)Cc3ccccc3)CC2)nc1COC(C)=O` [Example 5, Ethyl 2-(acetoxymethyl)-6-{4-[(benzylsulfonyl)carbamoyl]piperidin-1-yl}-5-cyanonicotinate], the figure is 0.044 µM.
On the same count and under the same terms, for `CCOC(=O)c1cc(C#N)c(N2CC(C(=O)NS(=O)(=O)Cc3ccccc3)C2)nc1CN(C)C` [Example 6, Ethyl 6-{3-[(benzylsulfonyl)carbamoyl]azetidin-1-yl}-5-cyano-2-[(dimethylamino)methyl]nicotinate] the value was 1.07 µM; for `CCOC(=O)c1cc(C#N)c(N2CC(C(=O)NS(=O)(=O)Cc3ccccc3)C2)nc1COC(C)=O` [Example 7, Ethyl 2-(acetoxymethyl)-6-{3-[(benzylsulfonyl)carbamoyl]azetidin-1-yl}-5-cyanonicotinate], 0.076 µM; for `CCOC(=O)COc1nc(N2CCC(C(=O)NS(=O)(=O)Cc3ccccc3)CC2)c(C#N)cc1C(=O)OCC` [Example 8, Ethyl 6-{4-[(benzylsulfonyl)carbamoyl]piperidin-1-yl}-5-cyano-2-(2-ethoxy-2-oxoethoxy)nicotinate], 0.039 µM.
Consider `CCOC(=O)c1cc(C#N)c(N2CC(C(=O)NS(=O)(=O)Cc3ccccc3)C2)nc1CN=[N+]=[N-]` [Example 9, Ethyl 2-(azidomethyl)-6-{3-[(benzylsulfonyl)carbamoyl]azetidin-1-yl}-5-cyanonicotinate], for which the IC50 stood at 0.069 µM.
As for `CCOC(=O)c1cc(C#N)c(N2CC(C(=O)NS(=O)(=O)Cc3ccccc3)C2)nc1CS(C)(=O)=O` [Example 10, Ethyl 6-{3-[(benzylsulfonyl)carbamoyl]azetidin-1-yl}-5-cyano-2-[(methylsulfonyl)methyl]nicotinate], the IC50 is 0.243 µM.
Still for that read-out and setting: for `CCOC(=O)c1cc(C#N)c(N2CCC(C(=O)NS(=O)(=O)Cc3ccccc3)CC2)nc1CN=[N+]=[N-]` [Example 11, Ethyl 2-(azidomethyl)-6-{4-[(benzylsulfonyl)carbamoyl]piperidin-1-yl}-5-cyanonicotinate] the value was 0.025 µM; for `CCOC(=O)c1cc(C#N)c(N2CCC(C(=O)NS(=O)(=O)Cc3ccccc3)CC2)nc1CS(C)(=O)=O` [Example 12, Ethyl 6-{4-[(benzylsulfonyl)carbamoyl]piperidin-1-yl}-5-cyano-2-[(methylsulfonyl)methyl]nicotinate], 0.129 µM; for `CCOC(=O)c1cc(C#N)c(N2CC(C(=O)NS(=O)(=O)Cc3ccccc3)C2)nc1CN1C(=O)CCC1=O` [Example 13, Ethyl 6-{3-[(benzylsulfonyl)carbamoyl]azetidin-1-yl}-5-cyano-2-[(2,5-dioxopyrrolidin-1-yl)methyl]nicotinate], 0.064 µM.
Still for that read-out and setting: for `CCOC(=O)c1cc(C#N)c(N2CC(C(=O)NS(=O)(=O)Cc3ccccc3)C2)nc1COC(=O)CO` [Example 14, Ethyl 6-{3-[(benzylsulfonyl)carbamoyl]azetidin-1-yl}-5-cyano-2-[(glycoloyloxy)methyl]nicotinate] the value was 0.044 µM; for `CCOC(=O)c1cc(C#N)c(N2CCC(C(=O)NS(=O)(=O)Cc3ccccc3)CC2)nc1CN1C(=O)CCC1=O` [Example 15, Ethyl 6-{4-[(benzylsulfonyl)carbamoyl]piperidin-1-yl}-5-cyano-2-[(2,5-dioxopyrrolidin-1-yl)methyl]nicotinate], 0.017 µM; for `CCOC(=O)c1cc(C#N)c(N2CCC(C(=O)NS(=O)(=O)Cc3ccccc3)CC2)nc1COC(=O)CO` [Example 16, Ethyl 6-{4-[(benzylsulfonyl)carbamoyl]piperidin-1-yl}-5-cyano-2-[(glycoloyloxy)methyl]nicotinate], 0.015 µM.
As to `CCOC(=O)c1cc(C#N)c(N2CCC(C(=O)NS(=O)(=O)Cc3ccccc3)CC2)nc1OCCC#N` [Example 17, Ethyl 6-{4-[(benzylsulfonyl)carbamoyl]piperidin-1-yl}-5-cyano-2-(2-cyanoethoxy)nicotinate], the IC50 came to 0.027 µM.
As for `CCOC(=O)c1cc(C#N)c(N2CCC(C(=O)NS(=O)(=O)Cc3ccccc3)CC2)nc1OCCO` [Example 18, Ethyl 6-{4-[(benzylsulfonyl)carbamoyl]piperidin-1-yl}-5-cyano-2-(2-hydroxyethoxy)nicotinate], the IC50 worked out at 0.031 µM.
The same measure, in the same setting: as for `CCOC(=O)c1cc(C#N)c(N2CCC(C(=O)NS(=O)(=O)Cc3ccccc3)CC2)nc1SCCO` [Example 19, Ethyl 6-{4-[(benzylsulfonyl)carbamoyl]piperidin-1-yl}-5-cyano-2-[(2-hydroxyethyl)thio]nicotinate], the figure is 0.016 µM; as for `CCOC(=O)c1cc(C#N)c(N2CCC(C(=O)NS(=O)(=O)Cc3ccccc3)CC2)nc1OCCNC(C)=O` [Example 20, Ethyl 2-(2-acetamidoethoxy)-6-{4-[(benzylsulfonyl)carbamoyl]piperidin-1-yl}-5-cyanonicotinate], 0.038 µM.
Same read-out and setting: for `CCOC(=O)c1cc(C#N)c(N2CCC(C(=O)NS(=O)(=O)Cc3ccccc3)CC2)nc1SCCNC(C)=O` [Example 21, Ethyl 2-[(2-acetamidoethyl)thio]-6-{4-[(benzylsulfonyl)carbamoyl]piperidin-1-yl}-5-cyanonicotinate] the value was 0.01 µM; for `CCOC(=O)c1cc(C#N)c(N2CCC(C(=O)NS(=O)(=O)Cc3ccccc3)CC2)nc1OCC(N)=O` [Example 22, Ethyl 2-(2-amino-2-oxoethoxy)-6-{4-[(benzylsulfonyl)carbamoyl]piperidin-1-yl}-5-cyanonicotinate], 0.072 µM; for `CCOC(=O)c1cc(C#N)c(N2CCC(C(=O)NS(=O)(=O)Cc3ccccc3)CC2)nc1OCC1CCO1` (stereo not shown) [Example 23, Ethyl 6-{4-[(benzylsulfonyl)carbamoyl]piperidin-1-yl}-5-cyano-2-(oxetan-2-ylmethoxy)nicotinate], 0.048 µM.
With `CCOC(=O)c1cc(C#N)c(N2CCC(C(=O)NS(=O)(=O)Cc3ccccc3)CC2)nc1OCC(=O)O` [Example 24, {[6-{4-[(Benzylsulfonyl)carbamoyl]piperidin-1-yl}-5-cyano-3-(ethoxycarbonyl)pyridin-2-yl]oxy}acetic acid], the IC50 was found to be 0.025 µM.
The same measure, in the same setting: for `CCOC(=O)c1cc(C#N)c(N2CCC(C(=O)NS(=O)(=O)Cc3ccccc3)CC2)nc1OCC(=O)NC` [Example 25, Ethyl 6-{4-[(benzylsulfonyl)carbamoyl]piperidin-1-yl}-5-cyano-2-[2-(methylamino)-2-oxoethoxy]nicotinate] the value was 0.075 µM.
Still for that read-out and setting: as for `CCOC(=O)c1cc(C#N)c(N2CCC(C(=O)NS(=O)(=O)Cc3ccccc3)CC2)nc1SCC(=O)O` [Example 26, {[6-{4-[(Benzylsulfonyl)carbamoyl]piperidin-1-yl}-5-cyano-3-(ethoxycarbonyl)pyridin-2-yl]thio}acetic acid], the figure is 0.0081 µM; as for `CCOC(=O)c1cc(C#N)c(N2CCC(C(=O)NS(=O)(=O)Cc3ccccc3)CC2)nc1CSCC` [Example 27, Ethyl 6-{4-[(benzylsulfonyl)carbamoyl]piperidin-1-yl}-5-cyano-2-[(ethylthio)methyl]nicotinate], 0.057 µM.
Same read-out and setting: as for `CCOC(=O)c1cc(C#N)c(N2CCC(C(=O)NS(=O)(=O)Cc3ccccc3)CC2)nc1CSCCO` [Example 28, Ethyl 6-{4-[(benzylsulfonyl)carbamoyl]piperidin-1-yl}-5-cyano-2-{[(2-hydroxyethyl)thio]methyl}nicotinate], the figure is 0.037 µM; as for `CCOC(=O)c1cc(C#N)c(N2CCC(C(=O)NS(=O)(=O)Cc3ccccc3)CC2)nc1CSCCNC(C)=O` [Example 29, Ethyl 2-{[(2-acetamidoethyl)thio]methyl}-6-{4-[(benzylsulfonyl)carbamoyl]piperidin-1-yl}-5-cyanonicotinate], 0.033 µM.

Still in this test, the particulars now being: functional inhibition of 2-Me-S-ADP induced P2Y12 signalling; membranes from P2Y12 transfected CHO-cells; EC80 concentration of agonist; read-out: IC50.
`CCOC(=O)c1cc(C#N)c(N2CCC(C(=O)NS(=O)(=O)Cc3ccccc3)CC2)nc1CN(C)C` [Example 4, Ethyl 6-{4-[(benzylsulfonyl)carbamoyl]piperidin-1-yl}-5-cyano-2-[(dimethylamino)methyl]nicotinate]: the IC50 is 0.28 µM.
Same read-out and setting: as for `CCOC(=O)c1cc(C#N)c(N2CCC(C(=O)NS(=O)(=O)Cc3ccccc3)CC2)nc1CS(C)(=O)=O` [Example 12, Ethyl 6-{4-[(benzylsulfonyl)carbamoyl]piperidin-1-yl}-5-cyano-2-[(methylsulfonyl)methyl]nicotinate], the figure is 0.13 µM.

These data come from patent US20080200448A1, “New Pyridine Analogues VIII 518” (ASTRAZENECA AB, priority 2007, published 2008).
